Test results published in US10065970B2 (Genentech, Inc., priority 2015, dated 2018).
pKi: −log10 of the molar value.

Target: PI3Kα (alpha) (Homo sapiens (Human), UniProt P42336)
Assay: p110α (alpha) PI3K Binding Assay (ADP-Glo lipid kinase reaction)
Type: biochemical
Settings: read-out: PI3Kα-(alpha) ATP (Ki) micromolar
How it was run: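 Enzyme with PIP2:3PS lipid substrate and ATP/MgCl2 in 50 mM HEPES, 50 mM NaCl, 3 mM MgCl2, 0.01% BSA, 1% DMSO, 120 min at room temperature. ADP formed detected by ADP-Glo luminescence. Ki from 10-point dose-response curves via the Morrison equation.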

Chain of PI3Kα (alpha) (P42336 whole entry): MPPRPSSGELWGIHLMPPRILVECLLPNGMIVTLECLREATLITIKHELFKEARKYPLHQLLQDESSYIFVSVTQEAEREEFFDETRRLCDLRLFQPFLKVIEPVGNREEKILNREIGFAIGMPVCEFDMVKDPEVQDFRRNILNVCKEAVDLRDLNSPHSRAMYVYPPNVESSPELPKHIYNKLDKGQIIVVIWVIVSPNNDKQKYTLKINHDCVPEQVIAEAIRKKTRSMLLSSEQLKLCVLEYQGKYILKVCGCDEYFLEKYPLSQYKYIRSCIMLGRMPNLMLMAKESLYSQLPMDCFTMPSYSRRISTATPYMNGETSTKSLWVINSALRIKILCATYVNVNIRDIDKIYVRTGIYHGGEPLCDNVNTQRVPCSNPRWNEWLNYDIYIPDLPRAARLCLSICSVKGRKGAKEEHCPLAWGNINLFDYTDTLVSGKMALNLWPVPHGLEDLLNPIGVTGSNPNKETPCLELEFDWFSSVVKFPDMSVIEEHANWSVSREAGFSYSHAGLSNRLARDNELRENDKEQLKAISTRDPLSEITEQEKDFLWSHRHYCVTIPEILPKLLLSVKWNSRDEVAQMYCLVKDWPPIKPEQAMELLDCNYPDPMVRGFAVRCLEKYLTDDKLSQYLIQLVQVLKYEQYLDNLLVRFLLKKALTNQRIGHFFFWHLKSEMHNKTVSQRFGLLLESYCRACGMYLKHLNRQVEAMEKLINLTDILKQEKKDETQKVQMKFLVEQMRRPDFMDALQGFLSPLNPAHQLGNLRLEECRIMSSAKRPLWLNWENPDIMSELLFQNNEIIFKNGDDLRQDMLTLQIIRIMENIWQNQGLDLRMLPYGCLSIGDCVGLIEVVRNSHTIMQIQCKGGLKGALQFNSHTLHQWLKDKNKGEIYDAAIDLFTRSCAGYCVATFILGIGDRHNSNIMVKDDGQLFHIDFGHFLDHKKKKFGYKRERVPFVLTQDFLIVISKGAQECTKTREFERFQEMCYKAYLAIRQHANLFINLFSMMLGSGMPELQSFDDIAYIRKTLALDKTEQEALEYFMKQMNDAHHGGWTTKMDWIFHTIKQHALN
Chain of PI3Kα (alpha) (P27986 whole entry partner): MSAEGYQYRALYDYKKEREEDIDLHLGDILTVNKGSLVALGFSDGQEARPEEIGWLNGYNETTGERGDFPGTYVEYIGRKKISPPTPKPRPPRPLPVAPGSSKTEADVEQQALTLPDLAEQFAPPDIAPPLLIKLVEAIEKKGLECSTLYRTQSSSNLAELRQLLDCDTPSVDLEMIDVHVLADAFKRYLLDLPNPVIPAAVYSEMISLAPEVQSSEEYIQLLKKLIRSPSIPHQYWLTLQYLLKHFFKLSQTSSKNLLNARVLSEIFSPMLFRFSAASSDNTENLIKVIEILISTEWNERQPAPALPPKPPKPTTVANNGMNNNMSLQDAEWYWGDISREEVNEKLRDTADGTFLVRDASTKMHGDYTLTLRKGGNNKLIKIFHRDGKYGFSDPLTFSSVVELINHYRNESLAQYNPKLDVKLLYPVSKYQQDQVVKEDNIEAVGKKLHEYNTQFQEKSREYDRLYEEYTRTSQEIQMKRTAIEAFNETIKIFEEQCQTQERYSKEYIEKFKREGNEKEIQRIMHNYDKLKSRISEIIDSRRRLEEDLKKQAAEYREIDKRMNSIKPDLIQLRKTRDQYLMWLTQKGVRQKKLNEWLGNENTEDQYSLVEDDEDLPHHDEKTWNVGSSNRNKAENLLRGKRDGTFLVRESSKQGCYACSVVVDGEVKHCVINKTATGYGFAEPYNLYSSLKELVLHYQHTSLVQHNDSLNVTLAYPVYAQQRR

## CC[C@H](C(N)=O)n1cc(-c2cc3c4c(c2)nc(-c2ccc5oc(N)nc5n2)n4CCCO3)cn1 (single isomer, unassigned) [Example 312]
  pKi: 10.41
